Results on 12 compounds are retold here after US20260337208A1, “HETEROCYCLIC DERIVATIVES AS JANUS KINASE INHIBITORS” (CHIESI FARMACEUTICI S.P.A., priority 2022, published 2026).

The structures appear in SMILES notation.

The target in one assay is JAK2 (Homo sapiens, UniProt O60674). Nature of the assay: Biochemical potency on JAK2, TR-FRET (LANCE Ultra kinase assay). The settings on record: ATP corresponding to Km; cell-free; read-out: JAK2 inhibitory activity (pIC50) (converted). In short, it runs like this:
(§1)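 ULight-JAK-1 (Tyr1023) peptide phosphorylation at Km ATP, 1.5 h r.t.; substrate solution held peptide 30/50/20/10 nM and ATP 20/0.7/0.2/12 μM, enzyme solution 0.15/0.083/0.025/0.144 ng/μL (JAK1/JAK2/JAK3/TYK2). EDTA stop, Eu-PT66 antibody TR-FRET read at 665 nm; 11-point 5-fold dilutions from 20 μM; IC50 by variable-slope fit.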
For orientation: TR-FRET usually uses a lanthanide donor and a delayed reading to cut background.

A further assay has as its target TYK2 (Homo sapiens, UniProt P29597). Description: Biochemical potency on Tyk2, TR-FRET (LANCE Ultra kinase assay). As to conditions: ATP corresponding to Km; cell-free; read-out: TYK2 inhibitory activity (pIC50) (converted). Put shortly:
as §1

The target in the next assay is T1, JAK3 (Homo sapiens, UniProt P52333).
T1 sequence (P52333 1-1124): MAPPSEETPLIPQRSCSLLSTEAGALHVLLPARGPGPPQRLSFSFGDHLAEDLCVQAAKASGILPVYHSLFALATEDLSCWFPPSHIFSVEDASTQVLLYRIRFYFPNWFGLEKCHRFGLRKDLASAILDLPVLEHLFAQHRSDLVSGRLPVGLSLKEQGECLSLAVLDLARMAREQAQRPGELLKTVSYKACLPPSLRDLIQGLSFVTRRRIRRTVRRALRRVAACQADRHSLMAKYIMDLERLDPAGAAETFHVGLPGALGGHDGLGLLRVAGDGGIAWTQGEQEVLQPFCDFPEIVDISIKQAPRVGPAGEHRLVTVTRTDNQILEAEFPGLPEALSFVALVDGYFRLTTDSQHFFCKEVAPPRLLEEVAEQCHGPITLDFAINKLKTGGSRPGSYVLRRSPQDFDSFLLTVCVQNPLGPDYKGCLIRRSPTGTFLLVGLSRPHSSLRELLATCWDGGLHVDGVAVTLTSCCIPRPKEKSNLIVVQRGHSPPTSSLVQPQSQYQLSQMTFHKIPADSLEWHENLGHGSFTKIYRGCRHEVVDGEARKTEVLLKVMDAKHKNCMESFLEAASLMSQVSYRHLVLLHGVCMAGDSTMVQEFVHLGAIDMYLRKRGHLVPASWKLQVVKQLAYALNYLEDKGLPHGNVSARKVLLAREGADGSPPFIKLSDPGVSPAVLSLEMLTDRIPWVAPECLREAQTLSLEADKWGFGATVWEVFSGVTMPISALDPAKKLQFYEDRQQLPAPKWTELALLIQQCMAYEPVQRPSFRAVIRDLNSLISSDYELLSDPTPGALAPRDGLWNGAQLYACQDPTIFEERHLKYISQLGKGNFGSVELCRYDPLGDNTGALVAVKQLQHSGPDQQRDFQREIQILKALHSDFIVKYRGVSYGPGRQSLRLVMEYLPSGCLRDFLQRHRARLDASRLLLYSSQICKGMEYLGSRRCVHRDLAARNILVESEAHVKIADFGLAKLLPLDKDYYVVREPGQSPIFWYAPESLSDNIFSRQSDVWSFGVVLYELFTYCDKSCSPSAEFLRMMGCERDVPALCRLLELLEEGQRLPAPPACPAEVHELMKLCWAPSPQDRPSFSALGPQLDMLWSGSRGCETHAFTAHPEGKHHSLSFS
Description: Biochemical potency on JAK3, TR-FRET (LANCE Ultra kinase assay). As to conditions: ATP corresponding to Km; cell-free; read-out: JAK3 inhibitory activity (pIC50) (converted). In short, it runs like this: as §1

The subject of assay [1] is pSTAT6 in BEAS-2B human cell line. Nature of the assay: Inhibition of IL-13 induced pSTAT6 in BEAS. The settings on record: for IC50: Homo sapiens, BEAS-2B, 0.5 h, IL-13 trigger, 30 min, parent compound; for Fold difference parent vs predicted acid metabolite: ratio=IC50 predicted acid metabolite/IC50 ester. It is filed as cell-based. Put shortly: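 BEAS-2B cells grown 48 h, pre-treated 30 min with compound, then stimulated 30 min with IL-13. Lysate pSTAT6 (Tyr641) measured by sandwich ELISA. Eleven 5-fold dilutions from 10 μM, in duplicate, fitted to IC50.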

A further assay has as its target JAK1 (Homo sapiens, UniProt P23458). Description: Biochemical potency on JAK1, TR-FRET (LANCE Ultra kinase assay). As to conditions: ATP corresponding to Km; cell-free; read-out: JAK1 inhibitory activity (pIC50) (converted). Put shortly:
as §1

Chain of TYK2 (P29597 whole entry): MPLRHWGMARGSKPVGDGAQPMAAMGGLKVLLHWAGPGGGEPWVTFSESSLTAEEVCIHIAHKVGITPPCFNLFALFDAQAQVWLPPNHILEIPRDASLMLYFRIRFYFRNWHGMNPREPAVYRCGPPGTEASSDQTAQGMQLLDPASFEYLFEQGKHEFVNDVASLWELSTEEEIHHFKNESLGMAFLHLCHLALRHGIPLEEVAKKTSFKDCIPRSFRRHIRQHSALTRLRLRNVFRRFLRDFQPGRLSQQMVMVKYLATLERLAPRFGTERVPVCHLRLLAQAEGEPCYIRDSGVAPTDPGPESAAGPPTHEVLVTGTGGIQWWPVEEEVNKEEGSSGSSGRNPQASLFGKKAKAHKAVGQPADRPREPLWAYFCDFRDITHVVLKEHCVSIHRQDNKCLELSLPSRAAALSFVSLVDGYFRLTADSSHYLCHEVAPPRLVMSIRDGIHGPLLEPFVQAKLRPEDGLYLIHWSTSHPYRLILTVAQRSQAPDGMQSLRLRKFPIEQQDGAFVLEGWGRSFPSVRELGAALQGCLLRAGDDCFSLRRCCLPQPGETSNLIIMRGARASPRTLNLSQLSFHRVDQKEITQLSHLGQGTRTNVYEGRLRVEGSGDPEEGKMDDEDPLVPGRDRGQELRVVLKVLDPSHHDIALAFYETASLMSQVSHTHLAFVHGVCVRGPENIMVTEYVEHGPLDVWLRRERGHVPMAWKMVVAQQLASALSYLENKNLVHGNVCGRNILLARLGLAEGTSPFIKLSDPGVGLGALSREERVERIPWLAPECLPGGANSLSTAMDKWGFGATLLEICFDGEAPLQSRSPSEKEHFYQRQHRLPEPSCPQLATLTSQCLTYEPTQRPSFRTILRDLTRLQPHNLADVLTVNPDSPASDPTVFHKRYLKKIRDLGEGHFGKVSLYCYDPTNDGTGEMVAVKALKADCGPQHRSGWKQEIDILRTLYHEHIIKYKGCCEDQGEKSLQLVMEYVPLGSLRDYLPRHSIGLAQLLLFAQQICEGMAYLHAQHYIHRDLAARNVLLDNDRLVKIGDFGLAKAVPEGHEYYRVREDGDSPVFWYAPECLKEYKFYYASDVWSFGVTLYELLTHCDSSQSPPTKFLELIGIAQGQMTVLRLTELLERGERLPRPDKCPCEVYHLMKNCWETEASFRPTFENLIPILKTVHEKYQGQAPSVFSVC
Chain of JAK2 (O60674 whole entry): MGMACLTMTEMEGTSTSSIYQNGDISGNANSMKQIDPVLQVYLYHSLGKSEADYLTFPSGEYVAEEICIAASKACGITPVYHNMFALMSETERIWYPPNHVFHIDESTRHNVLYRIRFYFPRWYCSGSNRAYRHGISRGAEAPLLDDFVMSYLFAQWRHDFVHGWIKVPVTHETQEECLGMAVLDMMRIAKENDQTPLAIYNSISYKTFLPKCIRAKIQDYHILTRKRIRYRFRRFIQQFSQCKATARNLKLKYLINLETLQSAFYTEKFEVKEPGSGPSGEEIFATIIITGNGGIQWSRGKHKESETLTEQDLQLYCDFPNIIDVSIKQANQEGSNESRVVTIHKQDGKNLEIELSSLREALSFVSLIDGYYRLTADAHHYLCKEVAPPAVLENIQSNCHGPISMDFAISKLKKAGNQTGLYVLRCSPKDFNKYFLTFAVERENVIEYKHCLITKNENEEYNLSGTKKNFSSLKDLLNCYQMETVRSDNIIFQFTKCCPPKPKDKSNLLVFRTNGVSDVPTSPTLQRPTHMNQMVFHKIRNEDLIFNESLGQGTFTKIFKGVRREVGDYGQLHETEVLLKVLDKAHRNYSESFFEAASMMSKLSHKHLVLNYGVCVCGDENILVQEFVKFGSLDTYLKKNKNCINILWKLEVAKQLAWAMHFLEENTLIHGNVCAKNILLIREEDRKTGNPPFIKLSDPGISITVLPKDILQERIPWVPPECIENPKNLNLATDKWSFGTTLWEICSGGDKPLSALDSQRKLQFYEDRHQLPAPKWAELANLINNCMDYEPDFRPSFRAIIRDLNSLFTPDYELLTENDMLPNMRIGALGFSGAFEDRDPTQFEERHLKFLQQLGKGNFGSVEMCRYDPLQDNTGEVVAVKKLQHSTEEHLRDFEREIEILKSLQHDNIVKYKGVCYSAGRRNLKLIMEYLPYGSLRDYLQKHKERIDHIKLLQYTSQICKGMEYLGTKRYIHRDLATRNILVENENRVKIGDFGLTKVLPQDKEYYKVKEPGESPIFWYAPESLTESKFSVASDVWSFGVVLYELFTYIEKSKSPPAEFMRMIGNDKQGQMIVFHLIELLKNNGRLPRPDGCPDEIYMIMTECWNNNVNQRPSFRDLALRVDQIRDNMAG
Chain of JAK1 (P23458 whole entry): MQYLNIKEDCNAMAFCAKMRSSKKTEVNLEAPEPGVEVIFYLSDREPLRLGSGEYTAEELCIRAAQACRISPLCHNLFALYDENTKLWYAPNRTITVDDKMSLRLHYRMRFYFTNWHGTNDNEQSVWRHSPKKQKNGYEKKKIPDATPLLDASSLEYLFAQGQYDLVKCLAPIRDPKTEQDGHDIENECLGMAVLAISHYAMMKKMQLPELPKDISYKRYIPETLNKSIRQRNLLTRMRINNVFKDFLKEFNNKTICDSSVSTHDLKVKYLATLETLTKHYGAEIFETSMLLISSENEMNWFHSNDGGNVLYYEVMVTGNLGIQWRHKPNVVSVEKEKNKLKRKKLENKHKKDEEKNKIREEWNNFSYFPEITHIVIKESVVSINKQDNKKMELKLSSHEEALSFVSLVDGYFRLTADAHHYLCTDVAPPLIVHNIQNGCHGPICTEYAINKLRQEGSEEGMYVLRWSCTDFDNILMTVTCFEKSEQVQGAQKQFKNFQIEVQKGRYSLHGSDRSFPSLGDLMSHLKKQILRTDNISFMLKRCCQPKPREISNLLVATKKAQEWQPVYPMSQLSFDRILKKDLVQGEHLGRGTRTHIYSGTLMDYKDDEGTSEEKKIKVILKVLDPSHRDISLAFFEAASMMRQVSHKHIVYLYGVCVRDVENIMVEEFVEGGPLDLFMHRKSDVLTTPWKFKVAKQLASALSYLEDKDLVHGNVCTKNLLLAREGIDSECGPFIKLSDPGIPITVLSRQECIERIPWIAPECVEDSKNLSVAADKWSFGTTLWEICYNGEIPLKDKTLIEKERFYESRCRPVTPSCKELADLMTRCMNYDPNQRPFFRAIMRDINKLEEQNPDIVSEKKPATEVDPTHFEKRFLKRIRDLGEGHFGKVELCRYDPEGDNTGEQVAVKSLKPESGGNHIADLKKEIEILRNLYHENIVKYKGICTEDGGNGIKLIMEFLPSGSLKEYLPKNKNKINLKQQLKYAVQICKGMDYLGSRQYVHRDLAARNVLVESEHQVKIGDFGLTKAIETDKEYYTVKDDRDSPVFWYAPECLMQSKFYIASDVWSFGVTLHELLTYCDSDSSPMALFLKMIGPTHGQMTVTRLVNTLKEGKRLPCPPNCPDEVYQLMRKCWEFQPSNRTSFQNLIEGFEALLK

Turning to `COc1cc2c(cc1-n1nc(C(=O)NCCCN3CCC(C(=O)OC4CCN(C)CC4)CC3)c3cnc(-c4cnn5cccnc45)cc31)OCCN2` [Example 26, 1-methylpiperidin-4-yl 1-(3-(1-(6-methoxy-3,4-dihydro-2H-benzo[b][1,4]oxazin-7-yl)-6-(pyrazolo[1,5-a]pyrimidin-3-yl)-1H-pyrazolo[4,3-c]pyridine-3-carboxamido)propyl)piperidine-4-carboxylate], the IC50 is at most 5.01 nM on JAK2; 5.01 to 50.1 nM on TYK2; at most 5.01 nM at JAK3; 5.01 to 50.1 nM in assay [1]; 5.01 to 50.1 nM at JAK1.
As to `CCOC(=O)C1CCCN(CCNC(=O)c2nn(-c3cc4c(cc3OC)NCCO4)c3cc(-c4cnn5cccnc45)ncc23)C1` (stereo not drawn) [Example 27, ethyl 1-(2-(1-(6-methoxy-3,4-dihydro-2H-benzo[b][1,4]oxazin-7-yl)-6-(pyrazolo[1,5-a]pyrimidin-3-yl)-1H-pyrazolo[4,3-c]pyridine-3-carboxamido)ethyl)piperidine-3-carboxylate], the IC50 at JAK2 was at most 5.01 nM; on TYK2, 5.01 to 50.1 nM; on JAK3, at most 5.01 nM; in assay [1], 5.01 to 50.1 nM; on JAK1, at most 5.01 nM.
Take `CCOC(=O)C1(F)CCN(CCNC(=O)c2nn(-c3cc4c(cc3OC)NCCO4)c3cc(-c4cnn5cccnc45)ncc23)CC1` [Example 28, ethyl 4-fluoro-1-(2-(1-(6-methoxy-3,4-dihydro-2H-benzo[b][1,4]oxazin-7-yl)-6-(pyrazolo[1,5-a]pyrimidin-3-yl)-1H-pyrazolo[4,3-c]pyridine-3-carboxamido)ethyl)piperidine-4-carboxylate]: the IC50 on JAK2 is at most 5.01 nM; on TYK2, 5.01 to 50.1 nM; at JAK3, at most 5.01 nM; in assay [1], 5.01 to 50.1 nM; on JAK1, at most 5.01 nM.
With `COC(=O)[C@@H]1CCN(CCNC(=O)c2nn(-c3cc4c(cc3OC)NCCO4)c3cc(-c4cnn5cccnc45)ncc23)C1` [Example 29, methyl (R)-1-(2-(1-(6-methoxy-3,4-dihydro-2H-benzo[b][1,4]oxazin-7-yl)-6-(pyrazolo[1,5-a]pyrimidin-3-yl)-1H-pyrazolo[4,3-c]pyridine-3-carboxamido)ethyl)pyrrolidine-3-carboxylate], the IC50 is at most 5.01 nM at JAK2; 5.01 to 50.1 nM on TYK2; at most 5.01 nM at JAK3; at most 5.01 nM in assay [1]; at most 5.01 nM at JAK1. Besides, the “Fold difference parent vs predicted acid metabolite” value in assay [1] is “kkk (200>ratio≥100)”.
Take `COC(=O)[C@H]1CCN(CCNC(=O)c2nn(-c3cc4c(cc3OC)NCCO4)c3cc(-c4cnn5cccnc45)ncc23)C1` [Example 30, methyl (S)-1-(2-(1-(6-methoxy-3,4-dihydro-2H-benzo[b][1,4]oxazin-7-yl)-6-(pyrazolo[1,5-a]pyrimidin-3-yl)-1H-pyrazolo[4,3-c]pyridine-3-carboxamido)ethyl)pyrrolidine-3-carboxylate]: the IC50 was at most 5.01 nM on JAK2; 5.01 to 50.1 nM on TYK2; at most 5.01 nM on JAK3; 5.01 to 50.1 nM in assay [1]; at most 5.01 nM at JAK1. The “Fold difference parent vs predicted acid metabolite” value in assay [1] is recorded as “kkkk (ratio≥200)”.
Consider `CCOC(=O)C1CN(CCNC(=O)c2nn(-c3cc4c(cc3OC)NCCO4)c3cc(-c4cnn5cccnc45)ncc23)C1` [Example 31, ethyl 1-(2-(1-(6-methoxy-3,4-dihydro-2H-benzo[b][1,4]oxazin-7-yl)-6-(pyrazolo[1,5-a]pyrimidin-3-yl)-1H-pyrazolo[4,3-c]pyridine-3-carboxamido)ethyl)azetidine-3-carboxylate], for which the IC50 on JAK2 is at most 5.01 nM; on TYK2, 5.01 to 50.1 nM; on JAK3, at most 5.01 nM; in assay [1] it was 5.01 to 50.1 nM; at JAK1 it was at most 5.01 nM.
Consider `CCOC(=O)[C@@H]1C[C@@H]2CN(CCNC(=O)c3nn(-c4cc5c(cc4OC)NCCO5)c4cc(-c5cnn6cccnc56)ncc34)C[C@@H]2C1` [Example 32], for which the IC50 at JAK2 is at most 5.01 nM; on TYK2 it was 5.01 to 50.1 nM; at JAK3, at most 5.01 nM; in assay [1], 5.01 to 50.1 nM; at JAK1, at most 5.01 nM.
For the compound `CCOC(=O)[C@H]1[C@@H]2CN(CCNC(=O)c3nn(-c4cc5c(cc4OC)NCCO5)c4cc(-c5cnn6cccnc56)ncc34)C[C@@H]21` [Example 33, ethyl (1R,5S,6r)-3-(2-(1-(6-methoxy-3,4-dihydro-2H-benzo[b][1,4]oxazin-7-yl)-6-(pyrazolo[1,5-a]pyrimidin-3-yl)-1H-pyrazolo[4,3-c]pyridine-3-carboxamido)ethyl)-3-azabicyclo[3.1.0]hexane-6-carboxylate], the IC50 is at most 5.01 nM at JAK2; 5.01 to 50.1 nM on TYK2; at most 5.01 nM on JAK3; 5.01 to 50.1 nM in assay [1]; at most 5.01 nM at JAK1.
With `CCOC(=O)C1(C)CCN(CCNC(=O)c2nn(-c3cc4c(cc3OC)NCCO4)c3cc(-c4cnn5cccnc45)ncc23)CC1` [Example 34, ethyl 1-(2-(1-(6-methoxy-3,4-dihydro-2H-benzo[b][1,4]oxazin-7-yl)-6-(pyrazolo[1,5-a]pyrimidin-3-yl)-1H-pyrazolo[4,3-c]pyridine-3-carboxamido)ethyl)-4-methylpiperidine-4-carboxylate], the IC50 on JAK2 is at most 5.01 nM; on TYK2, 5.01 to 50.1 nM; at JAK3 it was at most 5.01 nM; in assay [1], 5.01 to 50.1 nM; on JAK1, at most 5.01 nM.
On to `CCOC(=O)CC1CCN(CCNC(=O)c2nn(-c3cc4c(cc3OC)NCCO4)c3cc(-c4cnn5cccnc45)ncc23)CC1` [Example 35, ethyl 2-(1-(2-(1-(6-methoxy-3,4-dihydro-2H-benzo[b][1,4]oxazin-7-yl)-6-(pyrazolo[1,5-a]pyrimidin-3-yl)-1H-pyrazolo[4,3-c]pyridine-3-carboxamido)ethyl)piperidin-4-yl)acetate], for which the IC50 is at most 5.01 nM on JAK2; 5.01 to 50.1 nM on TYK2; at most 5.01 nM on JAK3; at most 5.01 nM in assay [1]; at most 5.01 nM on JAK1. Further, the “Fold difference parent vs predicted acid metabolite” value in assay [1] was “kkkk (ratio≥200)”.
`CCOC(=O)C1CN(CCNC(=O)c2nn(-c3cc4c(cc3OC)NCCO4)c3cc(-c4cnn5cccnc45)ncc23)CCN1C` (stereo not drawn) [Example 36, ethyl 4-(2-(1-(6-methoxy-3,4-dihydro-2H-benzo[b][1,4]oxazin-7-yl)-6-(pyrazolo[1,5-a]pyrimidin-3-yl)-1H-pyrazolo[4,3-c]pyridine-3-carboxamido)ethyl)-1-methylpiperazine-2-carboxylate]: the IC50 at JAK2 was 5.01 to 50.1 nM; at TYK2, 5.01 to 50.1 nM; on JAK3, at most 5.01 nM; in assay [1], 5.01 to 50.1 nM; at JAK1, at most 5.01 nM.
As to `COC(=O)Cc1cccc(CN(C)CCNC(=O)c2nn(-c3cc4c(cc3OC)NCCO4)c3cc(-c4cnn5cccnc45)ncc23)c1` [Example 37, methyl 2-(3-(((2-(1-(6-methoxy-3,4-dihydro-2H-benzo[b][1,4]oxazin-7-yl)-6-(pyrazolo[1,5-a]pyrimidin-3-yl)-1H-pyrazolo[4,3-c]pyridine-3-carboxamido)ethyl)(methyl)amino)methyl)phenyl)acetate], the IC50 on JAK2 was at most 5.01 nM; at TYK2, 5.01 to 50.1 nM; on JAK3 it was at most 5.01 nM; in assay [1] it was 5.01 to 50.1 nM; on JAK1, 5.01 to 50.1 nM.
